Source: patent US8414914B2, “Compositions for mucosal delivery of agents” (Virun, Inc., priority 2004, dated 2013)

Assay: IV study in dogs: plasma insulin and glucose after IV injection of human insulin
Format: in vivo, Mongrel dogs
Experimental: Oral bioavailability of insulin composition was determined using an IV study followed by an oral crossover study and the relative areas of under the curve, plasma half life, Cmax, and Tmax was calculated. […] Following data collection, plasma concentration, plasma half-life, peak concentration (Cmax) and time to reach Cmax (tmax) were determined. From the areas under the curve, percent oral bioavailability was determined.

[1] = dog #71, IV 0.01 mg/kg, 120 min
[2] = dog #71, IV 0.01 mg/kg, 180 min
[3] = dog #71, IV 0.01 mg/kg, 240 min
[4] = dog #72, IV 0.01 mg/kg, 120 min
[5] = dog #72, IV 0.01 mg/kg, 180 min
[6] = dog #72, IV 0.01 mg/kg, 240 min

human insulin: human insulin given by IV injection (0.01 mg/kg) as reference in the dog study
Plasma Glucose (dog #71, IV 0.01 mg/kg, 2 min): 89 mg/dL
Plasma Insulin (dog #71, IV 0.01 mg/kg, 2 min): 50.2 ng/mL
Plasma Glucose (dog #71, IV 0.01 mg/kg, 5 min): 82 mg/dL
Plasma Insulin (dog #71, IV 0.01 mg/kg, 5 min): 26.6 ng/mL
Plasma Glucose (dog #71, IV 0.01 mg/kg, 10 min): 57 mg/dL
Plasma Glucose (dog #71, IV 0.01 mg/kg, 15 min): 46 mg/dL
Plasma Insulin (dog #71, IV 0.01 mg/kg, 15 min): 10.1 ng/mL
Plasma Glucose (dog #71, IV 0.01 mg/kg, 20 min): 41 mg/dL
Plasma Glucose (dog #71, IV 0.01 mg/kg, 25 min): 42 mg/dL
Plasma Insulin (dog #71, IV 0.01 mg/kg, 25 min): 5.9 ng/mL
Plasma Glucose (dog #71, IV 0.01 mg/kg, 40 min): 39 mg/dL
Plasma Glucose (dog #71, IV 0.01 mg/kg, 60 min): 48 mg/dL
Plasma Glucose [1]: 69 mg/dL
Plasma Insulin [1]: 0.19 ng/mL
Plasma Glucose [2]: 87 mg/dL
Plasma Insulin [2]: 0.08 ng/mL
Plasma Glucose [3]: 86 mg/dL
Plasma Insulin [3]: 0.08 ng/mL
Plasma Glucose (dog #72, IV 0.01 mg/kg, 2 min): 89 mg/dL
Plasma Insulin (dog #72, IV 0.01 mg/kg, 2 min): 27.3 ng/mL
Plasma Glucose (dog #72, IV 0.01 mg/kg, 5 min): 60 mg/dL
Plasma Insulin (dog #72, IV 0.01 mg/kg, 5 min): 21.4 ng/mL
Plasma Glucose (dog #72, IV 0.01 mg/kg, 10 min): 31 mg/dL
Plasma Glucose (dog #72, IV 0.01 mg/kg, 15 min): 28 mg/dL
Plasma Glucose (dog #72, IV 0.01 mg/kg, 20 min): 35 mg/dL
Plasma Insulin (dog #72, IV 0.01 mg/kg, 20 min): 3.4 ng/mL
Plasma Glucose (dog #72, IV 0.01 mg/kg, 25 min): 24 mg/dL
Plasma Glucose (dog #72, IV 0.01 mg/kg, 40 min): 21 mg/dL
Plasma Insulin (dog #72, IV 0.01 mg/kg, 40 min): 0.7 ng/mL
Plasma Glucose (dog #72, IV 0.01 mg/kg, 60 min): 33 mg/dL
Plasma Insulin (dog #72, IV 0.01 mg/kg, 60 min): 0.2 ng/mL
Plasma Glucose [4]: 68 mg/dL
Plasma Insulin [4]: 0.04 ng/mL
Plasma Glucose [5]: 102 mg/dL
Plasma Insulin [5]: 0 ng/mL
Plasma Glucose [6]: 99 mg/dL
Plasma Insulin [6]: 0.04 ng/mL
